US20250320184A1 (SIRONAX LTD., priority 2022, published 2025)

What follows are compounds tested against T1, SARM1 (50-724) (Homo sapiens, UniProt Q6SZW1) (assay: biochemical).
T1 sequence (Q6SZW1 50-724): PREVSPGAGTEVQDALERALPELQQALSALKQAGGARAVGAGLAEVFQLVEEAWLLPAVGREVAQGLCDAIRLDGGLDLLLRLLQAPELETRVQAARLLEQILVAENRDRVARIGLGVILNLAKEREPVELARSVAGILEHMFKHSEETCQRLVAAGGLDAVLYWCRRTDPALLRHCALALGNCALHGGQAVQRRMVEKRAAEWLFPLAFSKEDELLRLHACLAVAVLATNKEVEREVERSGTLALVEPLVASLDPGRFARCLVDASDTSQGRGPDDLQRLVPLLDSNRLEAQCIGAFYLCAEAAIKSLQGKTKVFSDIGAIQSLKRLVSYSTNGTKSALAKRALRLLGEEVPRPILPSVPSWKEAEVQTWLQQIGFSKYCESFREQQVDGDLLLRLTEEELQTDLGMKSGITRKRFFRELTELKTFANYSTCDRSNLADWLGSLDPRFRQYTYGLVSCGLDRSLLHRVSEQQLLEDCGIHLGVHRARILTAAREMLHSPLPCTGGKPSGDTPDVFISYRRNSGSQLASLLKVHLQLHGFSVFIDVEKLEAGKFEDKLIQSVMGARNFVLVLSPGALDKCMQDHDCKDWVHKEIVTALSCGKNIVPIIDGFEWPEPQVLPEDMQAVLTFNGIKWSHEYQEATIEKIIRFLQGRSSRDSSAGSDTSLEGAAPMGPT
Protocol: An enzymatic assay was performed in a 384-well plate using Dulbecco's phosphate-buffered saline (PBS) as the reaction buffer. […] The reaction was initiated by adding a mixture of 200 μM nicotinamide mononucleotide (NMN) as activator and 100 μM NAD^+ as substrate. After 1 h of incubation at room temperature, the reaction was terminated with 10 times volume of 70% acetonitrile, then centrifuged at 3800 rpm for 10 min.
For CC(Nc1cc(F)c2nc[nH]c(=O)c2c1)c1cncc(Cl)c1Cl (racemic) [Compound 354, 6-((1-(4,5-dichloropyridin-3-yl)ethyl)amino)-8-fluoroquinazolin-4(3H)-one], the IC50 was < 100 nM. Compound CC(Nc1ccc2ccn(C)c(=O)c2c1)c1cncc(Cl)c1Cl (racemic) [Compound 184, 7-((1-(4,5-dichloropyridin-3-yl)ethyl)amino)-2-methylisoquinolin-1(2H)-one] has an IC50 of 100 to 500 nM. With O=C1Nc2cc(NS(=O)(=O)c3cccc(Cl)c3Cl)ccc2C12CCCC2 [Compound 212, 2,3-dichloro-N-(2′-oxospiro[cyclopentane-1,3′-indolin]-6′-yl)benzenesulfonamide] the IC50 was < 100 nM. For CCC1CCCCN1S(=O)(=O)Nc1ccc2c(c1)C(=O)NCC2 (racemic) [Compound 48, 2-ethyl-N-(1-oxo-1,2,3,4-tetrahydroisoquinolin-7-yl)piperidine-1-sulfonamide], the IC50 was > 1000 nM. In the case of O=C1NCCc2ccc(NS(=O)(=O)c3cc(F)c(F)cc3F)cc21 [Compound 35, 2,4,5-trifluoro-N-(1-oxo-1,2,3,4-tetrahydroisoquinolin-7-yl)benzenesulfonamide], the IC50 is reported as > 1000 nM. CCC(Nc1ccc2cc[nH]c(=O)c2c1)c1cccc(Cl)c1 (racemic) [Example 126, 7-((1-(3-chlorophenyl)propyl)amino)isoquinolin-1(2H)-one] showed an IC50 of 100 to 500 nM. CC1(C)C(=O)N(Cc2ccncc2)c2cc(NS(=O)(=O)c3cccc(Cl)c3Cl)ccc21 [Compound 309, 2,3-dichloro-N-(3,3-dimethyl-2-oxo-1-(pyridin-4-ylmethyl)indolin-6-yl)benzenesulfonamide] was tested, and the IC50 was < 100 nM. For Cc1nn(CC(N)=O)c(=O)c2nc(NC(C)c3nn(C)c(Cl)c3Cl)ccc12 (racemic) [Compound 330, 2-(2-((1-(4,5-dichloro-1-methyl-1H-pyrazol-3-yl)ethyl)amino)-5-methyl-8-oxopyrido[2,3-d]pyridazin-7(8H)-yl)acetamide], the IC50 was < 100 nM. For CC(C(N)=O)c1ccc(NS(=O)(=O)c2cccc(Cl)c2Cl)cc1 (racemic) [Compound 196, 2-(4-((2,3-dichlorophenyl)sulfonamido)phenyl)propanamide], the IC50 was < 100 nM. For CC(Nc1ccc2nc[nH]c(=O)c2n1)c1ccc(F)c(Cl)c1Cl (single isomer, unassigned) [Compound 386], the IC50 was < 100 nM. For Cc1ccc(Cl)c(S(=O)(=O)Nc2ccc3c(c2)C(=O)NCC3)c1Cl [Compound 2, 2,6-dichloro-3-methyl-N-(1-oxo-3,4-dihydro-2H-isoquinolin-7-yl)benzenesulfonamide], the IC50 was < 100 nM. In the case of CC1(C)Cc2ccc(NS(=O)(=O)c3cccc(Cl)c3Cl)cc2NC1=O [Compound 268, 2,3-dichloro-N-(3,3-dimethyl-2-oxo-1,4-dihydroquinolin-7-yl)benzenesulfonamide], the IC50 is reported as 100 to 500 nM. Work on CC(Nc1ccc2cc[nH]c(=O)c2c1)c1nc(Cl)n(C)c1Cl (racemic) [Compound 308, 7-((1-(2,5-dichloro-1-methyl-1H-imidazol-4-yl)ethyl)amino)isoquinolin-1(2H)-one] yielded an IC50 of 100 to 500 nM. CC(Nc1ccc2c(c1)C(=O)N(CC(N)=O)C2(C)C)c1nc(Cl)c(Cl)s1 (single isomer, unassigned) [Compound 320] was tested, and the IC50 was < 100 nM. For O=C1CCCc2ccc(NS(=O)(=O)c3cccc(Cl)c3Cl)cc21 [Compound 55, 2,3-dichloro-N-(8-oxo-5,6,7,8-tetrahydronaphthalen-2-yl)benzenesulfonamide], the IC50 was < 100 nM. O=C1Nc2cc(NS(=O)(=O)c3cccc(Cl)c3Cl)ccc2C12CC2 [Compound 208, 2,3-dichloro-N-(2′-oxospiro[cyclopropane-1,3′-indolin]-6′-yl)benzenesulfonamide] was tested, and the IC50 was < 100 nM. For CC1CN(S(=O)(=O)Nc2ccc3c(c2)C(=O)NCC3)CC(C)O1 (stereo not shown) [Example 165, 2,6-dimethyl-N-(1-oxo-1,2,3,4-tetrahydroisoquinolin-7-yl)morpholine-4-sulfonamide], the IC50 was > 1000 nM. Work on CC(Nc1ccc2c(c1)NC(=O)CC2)c1cccc(Cl)c1Cl (racemic) [Example 121, 7-((1-(2,3-dichlorophenyl)ethyl)amino)-3,4-dihydroquinolin-2(1H)-one] yielded an IC50 of 500 to 1000 nM. For CC(Nc1ccc2ccnn2c1)c1cccc(Cl)c1Cl (racemic) [Example 140, N-(1-(2,3-dichlorophenyl)ethyl)pyrazolo[1,5-a]pyridin-6-amine], the IC50 was 500 to 1000 nM. CC(=O)N1CC(C)(C)c2ccc(NS(=O)(=O)c3cccc(Cl)c3Cl)cc21 [Compound 220, N-(1-acetyl-3,3-dimethyl-indolin-6-yl)-2,3-dichloro-benzenesulfonamide] was tested, and the IC50 was < 100 nM. Cc1c(F)cccc1S(=O)(=O)Nc1ccc2c(c1)CCC(=O)N2 [Compound 8, 3-fluoro-2-methyl-N-(2-oxo-1,2,3,4-tetrahydroquinolin-6-yl)benzenesulfonamide] was tested, and the IC50 was > 1000 nM. CC(Nc1ccc2c(c1)C(=O)NCC2)c1cnc(Cl)c(Cl)c1 (racemic) [Example 119, 7-((1-(5,6-dichloropyridin-3-yl)ethyl)amino)-3,4-dihydroisoquinolin-1(2H)-one] was tested, and the IC50 was 500 to 1000 nM. For Cc1c2ccc(NC(C)c3snc(Cl)c3Cl)cc2nn1CC(N)=O (single isomer, unassigned) [Compound 341B], the IC50 was > 1000 nM. For O=C1NCCc2ccc(NS(=O)(=O)N3CCCC4CCCC43)cc21 (mixture of isomers) [Example 171], the IC50 was 100 to 500 nM. For CC(Nc1ccc2cc[nH]c(=O)c2c1)c1nc2c(s1)CCCC2 (racemic) [Compound 236, 7-((1-(4,5,6,7-tetrahydrobenzo[d]thiazol-2-yl)ethyl)amino)isoquinolin-1(2H)-one], the IC50 was 100 to 500 nM. For O=S(=O)(Nc1ccc2cccnc2c1)c1cccc(Cl)c1Cl [Compound 42, 2,3-dichloro-N-(quinolin-7-yl)benzenesulfonamide], the IC50 was < 100 nM. For Cc1n[nH]c2cc(NS(=O)(=O)c3cccc(Cl)c3Cl)cc(F)c12 [Compound 73, 2,3-dichloro-N-(4-fluoro-3-methyl-1H-indazol-6-yl)benzenesulfonamide], the IC50 was < 100 nM. Compound CC(Nc1ccc2c(c1)C(=O)NCC2)c1cc(Cl)cc(Cl)n1 (racemic) [Example 97, 7-((1-(4,6-dichloropyridin-2-yl)ethyl)amino)-3,4-dihydroisoquinolin-1(2H)-one] has an IC50 of 500 to 1000 nM. For CC(Nc1ccc2nc[nH]c(=O)c2n1)c1c(F)ccc(Cl)c1Cl (racemic) [Compound 349, 6-((1-(2,3-dichloro-6-fluorophenyl)ethyl)amino)pyrido[3,2-d]pyrimidin-4(3H)-one], the IC50 was < 100 nM. In the case of O=c1[nH]ccc2ccc(NS(=O)(=O)c3cccc(Cl)c3Cl)cc12 [Compound 22, 2,3-dichloro-N-(1-oxo-1,2-dihydroisoquinolin-7-yl)benzenesulfonamide], the IC50 is reported as < 100 nM. Compound Cc1c(F)cccc1S(=O)(=O)Nc1ccc2c(c1)C(=O)NCCC2 [Compound 6, 3-fluoro-2-methyl-N-(1-oxo-2,3,4,5-tetrahydro-1H-benzo[c]azepin-8-yl)benzenesulfonamide] has an IC50 of 100 to 500 nM. In the case of COc1nccc2ccc(NC(C)c3nc4c(s3)CN(C(=O)OC(C)(C)C)CC4)cc12 (racemic) [Compound 262, tert-butyl 2-(1-((1-methoxyisoquinolin-7-yl)amino)ethyl)-6,7-dihydrothiazolo[5,4-c]pyridine-5(4H)-carboxylate], the IC50 is reported as 100 to 500 nM. For Cc1c(F)cccc1S(=O)(=O)Nc1cccc(N2CCN(C)C2=O)c1 [Compound 28, 3-fluoro-2-methyl-N-(3-(3-methyl-2-oxoimidazolidin-1-yl)phenyl)benzenesulfonamide], the IC50 was > 1000 nM. In the case of CC(Nc1ccc2nc[nH]c(=O)c2n1)c1c(Cl)ccc(F)c1Cl (single isomer, unassigned) [Compound 383], the IC50 is reported as > 1000 nM. Cc1nc(C(C)Nc2ccc3cc[nH]c(=O)c3c2)c(Cl)n1C (racemic) [Compound 214, 7-((1-(5-chloro-1,2-dimethyl-1H-imidazol-4-yl)ethyl)amino)isoquinolin-1(2H)-one] showed an IC50 of 100 to 500 nM. With CC1(C)C(=O)N(CC2CNC(=O)CO2)c2cc(NS(=O)(=O)c3cccc(Cl)c3Cl)ccc21 (stereo not shown) [Compound 333, 2,3-dichloro-N-(3,3-dimethyl-2-oxo-1-((5-oxomorpholin-2-yl)methyl)indolin-6-yl)benzenesulfonamide] the IC50 was < 100 nM. In the case of Cc1c(F)cccc1S(=O)(=O)Nc1ccc2cnn(C(=O)OC(C)(C)C)c2c1 [Compound 24, tert-butyl 6-((3-fluoro-2-methylphenyl)sulfonamido)-1H-indazole-1-carboxylate], the IC50 is reported as > 1000 nM. For Cc1nc(C(C)Nc2ccc3c(C)n(CC(N)=O)nc3c2)sc1Cl (racemic) [Compound 343, 2-(6-((1-(5-chloro-4-methylthiazol-2-yl)ethyl)amino)-3-methyl-2H-indazol-2-yl)acetamide], the IC50 was < 100 nM. In the case of Cc1cc(F)cc(C2(Nc3ccc4c(c3)C(=O)N(C)CC4)COC2)c1 [Example 175, 7-((3-(3-fluoro-5-methylphenyl)oxetan-3-yl)amino)-2-methyl-3,4-dihydroisoquinolin-1(2H)-one], the IC50 is reported as > 1000 nM. In the case of O=C1NCCOc2ccc(NS(=O)(=O)c3cccc(Cl)c3Cl)cc21 [Compound 206, 2,3-dichloro-N-(5-oxo-3,4-dihydro-2H-1,4-benzoxazepin-7-yl)benzenesulfonamide], the IC50 is reported as 100 to 500 nM.
